Like-named read-outs stand apart in the source and are kept apart here.
Legend:
human EHMT2 913-1193 = molecular target: T1, human EHMT2 913-1193 (Homo sapiens, UniProt Q96KQ7); assay: EHMT2 enzyme assay on histone peptide substrate (EHMT2 PEP); type: biochemical; conditions: read-out: EHMT2 PEP IC50
T1 construct: recombinant purified human EHMT2 913-1193, Viva; purchased Viva
T1 sequence (Q96KQ7 913-1193): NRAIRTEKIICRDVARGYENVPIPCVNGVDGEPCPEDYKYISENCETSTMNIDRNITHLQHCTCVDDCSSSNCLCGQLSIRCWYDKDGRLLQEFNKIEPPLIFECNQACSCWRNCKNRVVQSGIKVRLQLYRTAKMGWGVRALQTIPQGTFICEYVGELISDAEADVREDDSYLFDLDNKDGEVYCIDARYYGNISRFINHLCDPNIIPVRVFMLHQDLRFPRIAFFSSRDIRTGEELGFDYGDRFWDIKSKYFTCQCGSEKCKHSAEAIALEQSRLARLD
Procedure, shortened: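 Inhibition is measured as reduced tritium incorporation into a biotinylated histone peptide from ^3H-SAM. The enzyme (0.031 nM) sees compound for 30 minutes before a 60-minute room-temperature reaction, which unlabeled SAM quenches prior to streptavidin Flashplate capture.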

EHMT1 = molecular target: T2, EHMT1 (Homo sapiens, UniProt Q9H9B1); assay: EHMT1 enzyme assay on peptide substrate (EHMT1 PEP); type: biochemical; conditions: read-out: EHMT1 PEP IC50
T2 sequence (Q9H9B1 1-1298): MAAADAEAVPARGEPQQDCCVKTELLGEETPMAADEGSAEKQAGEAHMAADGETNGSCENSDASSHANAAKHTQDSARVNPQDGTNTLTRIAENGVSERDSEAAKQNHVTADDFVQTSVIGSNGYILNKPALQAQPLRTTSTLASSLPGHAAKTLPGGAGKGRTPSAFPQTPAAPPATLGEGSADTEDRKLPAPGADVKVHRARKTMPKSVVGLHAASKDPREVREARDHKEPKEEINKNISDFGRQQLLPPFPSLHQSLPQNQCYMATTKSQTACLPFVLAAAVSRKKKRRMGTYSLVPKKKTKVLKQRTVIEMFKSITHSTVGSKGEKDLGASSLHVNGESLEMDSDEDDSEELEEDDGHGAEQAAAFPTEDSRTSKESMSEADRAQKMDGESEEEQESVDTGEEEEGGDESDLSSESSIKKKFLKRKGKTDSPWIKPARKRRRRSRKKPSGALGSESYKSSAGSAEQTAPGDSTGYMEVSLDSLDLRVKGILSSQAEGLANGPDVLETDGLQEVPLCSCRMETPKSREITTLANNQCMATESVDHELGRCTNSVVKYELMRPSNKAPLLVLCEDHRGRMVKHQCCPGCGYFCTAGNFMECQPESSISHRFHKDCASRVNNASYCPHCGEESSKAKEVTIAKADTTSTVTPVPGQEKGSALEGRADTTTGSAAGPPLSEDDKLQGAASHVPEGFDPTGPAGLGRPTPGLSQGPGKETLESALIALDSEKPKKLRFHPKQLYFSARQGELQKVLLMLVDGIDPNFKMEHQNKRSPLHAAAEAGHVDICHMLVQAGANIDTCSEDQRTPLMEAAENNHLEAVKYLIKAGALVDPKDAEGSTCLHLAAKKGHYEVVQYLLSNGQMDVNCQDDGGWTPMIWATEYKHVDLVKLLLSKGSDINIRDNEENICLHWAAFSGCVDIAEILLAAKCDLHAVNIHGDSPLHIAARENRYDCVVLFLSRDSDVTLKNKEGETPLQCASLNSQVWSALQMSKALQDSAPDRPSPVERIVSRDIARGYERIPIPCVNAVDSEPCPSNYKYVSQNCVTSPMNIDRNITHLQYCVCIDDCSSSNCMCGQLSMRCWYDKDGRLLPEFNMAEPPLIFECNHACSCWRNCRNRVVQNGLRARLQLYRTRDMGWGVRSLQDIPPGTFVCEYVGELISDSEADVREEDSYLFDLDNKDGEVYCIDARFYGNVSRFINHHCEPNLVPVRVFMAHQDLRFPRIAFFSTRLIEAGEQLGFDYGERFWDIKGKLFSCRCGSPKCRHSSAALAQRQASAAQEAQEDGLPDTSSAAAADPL

Row | SMILES | IC50 (human EHMT2 913-1193; Table VII) | IC50 (EHMT1; Table VII) | IC50 (human EHMT2 913-1193; Table VI) | IC50 (EHMT1; Table VI)
1 | CNc1ccnc(Nc2ccc(OC)c(OC[C@H](O)CN3CCC3)c2)n1 [Compound 1093] | 100 to 1000 nM | < 100 nM |  | 
2 | CNc1ccnc(Nc2ccc(OC)c(OCCC(C)NC)c2)n1 (stereo not drawn) [Compound 1073] | 1000 to 10000 nM | 100 to 1000 nM |  | 
3 | COc1cc2c(C#CCN3CCOCC3)cc(C)nc2cc1OCCCN1CCCC1 [Compound 763] |  |  | > 10000 nM | > 10000 nM
4 | CNc1cc2cc(OCCCN3CCCC3)c(OC)cc2cc1Cl [Compound 1043] | 1000 to 10000 nM | 100 to 1000 nM |  | 
5 | CNc1ccnc(Nc2ccc(OC)c(OC[C@@H]3CCN(C4CC4)C3)c2)n1 [Compound 1056] | 100 to 1000 nM | < 100 nM |  | 
6 | CNCCNCc1cc(Nc2nc(C)cc(NC)n2)ccc1OC [Compound 1080] | 100 to 1000 nM | < 100 nM |  | 
7 | CNC[C@@H](O)COc1cc(Nc2nccc(NC)n2)ccc1OC [Compound 1054] | 1000 to 10000 nM | 100 to 1000 nM |  | 
8 | CNCC(C)NCc1cc(Nc2nc(C)cc(NC)n2)ccc1OC (stereo not drawn) [Compound 1090] | 100 to 1000 nM | 100 to 1000 nM |  | 
9 | CNc1ccnc(Nc2ccc(OC)c(OC[C@@H]3CNCCO3)c2)n1 [Compound 1072] | > 10000 nM | > 10000 nM |  | 
10 | CCN1CCC(O)(COc2cc(Nc3nccc(NC)n3)ccc2OC)C1 (stereo not drawn) [Compound 1096] | > 10000 nM | > 10000 nM |  | 
11 | CNCCNCc1cc(Nc2nccc(NC)n2)ccc1OC [Compound 1076] | 100 to 1000 nM | 100 to 1000 nM |  | 
12 | CNc1ccnc(Nc2ccc(OC)c(ONC[C@@H]3CCCN3)c2)n1 [Compound 1061] | 1000 to 10000 nM | 100 to 1000 nM |  | 
13 | CCN1CC[C@@H](COc2cc(Nc3nccc(NC)n3)ccc2OC)C1 [Compound 1055] | 100 to 1000 nM | < 100 nM |  | 
14 | CNc1ccnc(Nc2ccc(OC)c(CNC[C@H]3CCCN3)c2)n1 [Compound 1062] | 1000 to 10000 nM | 1000 to 10000 nM |  | 

The remaining lines, values ahead:

Row | IC50 (human EHMT2 913-1193; Table VII) | IC50 (EHMT1; Table VII) | IC50 (human EHMT2 913-1193; Table VI) | IC50 (EHMT1; Table VI) | SMILES
15 | < 100 nM | < 100 nM |  |  | CCNc1cc(C)nc(Nc2ccc(OC)c(OC[C@H](O)CN3CCCC3)c2)n1 [Compound 1106]
16 |  |  | < 100 nM | < 100 nM | COc1ccc(Nc2nc(C)cc(NC3CCOC3)n2)cc1OCCCN1CCCC1 (stereo not drawn) [Compound 789]
17 | 1000 to 10000 nM | 100 to 1000 nM |  |  | CNc1ccnc(Nc2ccc(OC)c(OCC[C@@H]3CCCN3)c2)n1 [Compound 1087]
18 |  |  | < 100 nM | < 100 nM | COc1cc2c(C3CCN(C4CCOC4)CC3)cc(C)nc2cc1OCCCN1CCCC1 (stereo not drawn) [Compound 756]
19 |  |  | 100 to 1000 nM | 100 to 1000 nM | CNc1cc2sccc2c(Nc2cc(OCCCN3CCCC3)c(OC)cn2)n1 [Compound 609]
20 | 100 to 1000 nM | 100 to 1000 nM |  |  | CNc1ccnc(Nc2ccc(OC)c(OC[C@@H](CN3CCCC3)OC)c2)n1 [Compound 1083]
21 | 100 to 1000 nM | < 100 nM |  |  | CNc1cc(C)nc(Nc2ccc(OC)c(OC[C@H](O)CN3CC(C)C3)c2)n1 [Compound 1099]
22 |  |  | < 100 nM | < 100 nM | CNc1nc(C2CCN(C3CCOC3)CC2)c2cc(OC)c(OCCCN3CCCC3)cc2n1 (stereo not drawn) [Compound 759]
23 | 100 to 1000 nM | < 100 nM |  |  | CNc1ccnc(Nc2cnc(OC)c(OCCCN3CCCC3)c2)n1 [Compound 1048]
24 | < 100 nM | < 100 nM |  |  | CNc1cc(C)nc(Nc2ccc(OC)c(CNCCN3CCC3)c2)n1 [Compound 1081]
25 |  |  | 1000 to 10000 nM | 1000 to 10000 nM | COc1cc2c(C3CCN(C4CCOC4)CC3)nc(C)nc2cc1OCCCN1CCCC1 (stereo not drawn) [Compound 760]
26 | < 100 nM | < 100 nM |  |  | CNc1ccnc(Nc2ccc(OC)c(OC[C@H](O)CN3CCC3)c2)n1 [Compound 1047]
27 | 100 to 1000 nM | 100 to 1000 nM |  |  | CNc1cc(C)nc(Nc2ccc(OC)c(OC[C@H](O)CN3CC(C)C3)c2)n1 [Compound 1100]
